Type in all cases: cell-based
For one assay, the target named is T1, adenosine A2a receptor (Homo sapiens, UniProt P29274).
T1 construct: expressed in transfected cells; host or cells: CHO (Chinese Hamster Ovary)
Put plainly: Indirect determination of adenosine agonism by way of gene expression (cAMP-dependent luciferase reporter), A2a cells. The note with it: stably transfected CHO cells; 50% of the maximum stimulation of luciferase. An excerpt:
(§1) B-1. Indirect determination of the adenosine agonism by way of gene expression Cells of the CHO (Chinese Hamster Ovary) permanent line are transfected stably with the cDNA for the adenosine receptor subtypes A1, A2a and A2b. The adenosine A1 receptors are coupled to the adenylate cyclase by way of Gi proteins, while the adenosine A2a and A2b receptors are coupled by way of Gs proteins. In correspondence with this, the formation of cAMP in the cell is inhibited or stimulated, respectively. After that, expression of the luciferase is modulated by way of a cAMP-dependent promoter. The luciferase test is optimized, with the aim of high sensitivity and reproducibility, low variance and good suitability for implementation on a robot system, by varying several test parameters, such as cell density, duration of the growth phase and the test incubation, forskolin concentration and medium composition. The following test protocol is used for pharmacologically characterizing cells and for the robot-assisted substance screening:
(§2) The stock cultures are grown, at 37° C. and under 5% CO2, in DMEM/F12 medium containing 10% FCS (fetal calf serum) and in each case split 1:10 after 2-3 days. Test cultures are seeded in 384-well plates with 2000 cells per well and grown at 37° C. for approx. 48 hours. The medium is then replaced with a physiological sodium chloride solution (130 mM sodium chloride, 5 mM potassium chloride, 2 mM calcium chloride, 20 mM HEPES, 1 mM magnesium chloride hexahydrate, 5 mM sodium bicarbonate, pH 7.4). The substances to be tested, which are dissolved in DMSO, are pipetted into the test cultures (maximum final concentration of DMSO in the test mixture: 0.5%) in a dilution series of from 5×10^−11M to 3×10^−6M (final concentration). 10 minutes later, forskolin is added to the A1 cells and all the cultures are subsequently incubated at 37° C. for four hours. After that, 35 μl of a solution which is composed of 50% lysis reagent (30 mM disodium hydrogenphosphate, 10% glycerol, 3% TritonX100, 25 mM TrisHCl, 2 mM dithiotreitol (DTT), pH 7.8) and 50% luciferase substrate solution (2.5 mM ATP, 0.5 mM luciferin, 0.1 mM coenzyme A, 10 mM tricine, 1.35 mM magnesium sulfate, 15 mM DTT, pH 7.8) are added to the test cultures, which are shaken for approx. 1 minute and the luciferase activity is measured using a camera system. The EC50 values are determined, i.e., the concentrations at which 50% of the luciferase response is inhibited in the case of the A1 cell, and, respectively, 50% of the maximum stimulation with the corresponding substance is achieved in the case of the A2b and A2a cells. […] Pharmacol., 357, 1-9 (1998)).
(§3) Table 1 below lists the EC50 values of representative working examples for the receptor stimulation on adenosine A1, A2a and A2b receptor subtypes: […]
(In general: In a reporter assay the amount or activity of a reporter protein is the signal.)

A further assay deals with T2, adenosine A2b receptor (Homo sapiens, UniProt P29275).
T2 construct: expressed in transfected cells; host or cells: CHO (Chinese Hamster Ovary)
T2 sequence (P29275 1-332): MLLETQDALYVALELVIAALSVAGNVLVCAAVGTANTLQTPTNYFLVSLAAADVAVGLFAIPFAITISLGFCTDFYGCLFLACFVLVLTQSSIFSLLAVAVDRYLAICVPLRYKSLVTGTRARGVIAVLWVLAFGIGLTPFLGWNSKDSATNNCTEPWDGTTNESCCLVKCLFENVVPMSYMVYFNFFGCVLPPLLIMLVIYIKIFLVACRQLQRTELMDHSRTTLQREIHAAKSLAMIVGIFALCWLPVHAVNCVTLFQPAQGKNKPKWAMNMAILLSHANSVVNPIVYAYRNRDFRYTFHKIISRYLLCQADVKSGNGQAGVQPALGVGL
Put plainly: Indirect determination of adenosine agonism by way of gene expression (cAMP-dependent luciferase reporter), A2b cells. The note with it: stably transfected CHO cells; 50% of the maximum stimulation of luciferase.
Source text: as §1, §2, §3

The next assay deals with T3, adenosine A1 receptor (Homo sapiens, UniProt P30542).
T3 construct: expressed in transfected cells; host or cells: CHO (Chinese Hamster Ovary)
T3 sequence (P30542 1-326): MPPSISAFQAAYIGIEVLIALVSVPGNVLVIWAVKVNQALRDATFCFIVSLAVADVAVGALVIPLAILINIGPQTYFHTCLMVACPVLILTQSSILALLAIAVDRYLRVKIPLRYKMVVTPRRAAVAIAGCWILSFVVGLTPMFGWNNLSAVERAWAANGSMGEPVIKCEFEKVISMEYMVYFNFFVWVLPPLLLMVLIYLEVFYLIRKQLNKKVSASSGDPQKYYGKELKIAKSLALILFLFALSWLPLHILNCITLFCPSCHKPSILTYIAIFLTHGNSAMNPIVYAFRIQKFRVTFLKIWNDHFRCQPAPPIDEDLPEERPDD
Put plainly: Indirect determination of adenosine agonism by way of gene expression (cAMP-dependent luciferase reporter), A1 cells. The note with it: stably transfected CHO cells; 1 μM forskolin; concentration at which 50% of the luciferase response is inhibited.
Source text: as §1, §2, §3

T1 sequence (P29274 whole entry): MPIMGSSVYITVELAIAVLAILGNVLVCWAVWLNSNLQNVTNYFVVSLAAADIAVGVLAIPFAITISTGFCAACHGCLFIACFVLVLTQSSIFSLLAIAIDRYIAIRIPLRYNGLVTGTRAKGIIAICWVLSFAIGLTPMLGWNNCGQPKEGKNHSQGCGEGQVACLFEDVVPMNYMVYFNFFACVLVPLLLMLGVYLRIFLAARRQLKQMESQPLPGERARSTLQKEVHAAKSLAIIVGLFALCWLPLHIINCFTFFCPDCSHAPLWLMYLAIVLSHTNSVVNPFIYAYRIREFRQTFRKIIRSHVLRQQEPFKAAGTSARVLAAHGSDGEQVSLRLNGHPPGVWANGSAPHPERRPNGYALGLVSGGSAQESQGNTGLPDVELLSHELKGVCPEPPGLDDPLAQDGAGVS

Broadly, the EC50 is the concentration giving half of the maximal effect. Higher therefore signals a need for much substance. As to `COC(=O)c1c(N)c2c(-c3ccc(OCCO)cc3)c(C#N)c(SCc3csc(-c4ccc(Cl)cc4)n3)nc2n1C` [Example 1, Methyl 3-amino-6-({[2-(4-chlorophenyl)-1,3-thiazol-4-yl]methyl}thio)-5-cyano-4-[4-(2-hydroxyethoxy)phenyl]-1-methyl-1H-pyrrolo[2,3-b]pyridine-2-carboxylate], the EC50 on adenosine A2a receptor was determined as 170 nM; at adenosine A2b receptor, 550 nM; at adenosine A1 receptor it was 0.8 nM.

As to `COC(=O)Cn1c(C(=O)OC)c(N)c2c(-c3ccc(OCCO)cc3)c(C#N)c(SCc3csc(-c4ccc(Cl)cc4)n3)nc21` [Example 2], the EC50 on adenosine A2a receptor was 150 nM; at adenosine A2b receptor, 1540 nM; at adenosine A1 receptor it was 1.7 nM.

Consider `COC(=O)c1c(N)c2c(-c3ccccc3)c(C#N)c(SCc3csc(-c4ccc(Cl)cc4)n3)nc2n1C` [Example 3], for which the values for the 50% effective concentration (EC50) on adenosine A2a receptor, at adenosine A2b receptor and on adenosine A1 receptor were over 3000 nM, over 3000 nM and 5.3 nM, respectively.

For the molecule `COC(=O)c1c(N)c2c(-c3ccc(OCCO)cc3)c(C#N)c(SCc3cccc(C#N)c3)nc2n1C` [Example 4], the EC50 worked out at 73 nM at adenosine A2a receptor, 320 nM on adenosine A2b receptor and 3 nM at adenosine A1 receptor.

For `COC(=O)c1c(N)c2c(-c3ccc(OCCO)cc3)c(C#N)c(SCc3ccc(OC)nc3)nc2n1C` [Example 5], the results for the EC50 at adenosine A2a receptor, at adenosine A2b receptor and on adenosine A1 receptor were 200 nM, 1000 nM and 1.5 nM, respectively.

In the case of `Cn1c(C(N)=O)c(N)c2c(-c3ccc(OCCO)cc3)c(C#N)c(SCc3csc(-c4ccc(Cl)cc4)n3)nc21` [Example 6], the concentration for a half-maximal effect (EC50) is 1120 nM on adenosine A2a receptor, over 3000 nM at adenosine A2b receptor and 0.3 nM at adenosine A1 receptor.

In the case of `CNC(=O)c1c(N)c2c(-c3ccc(OCCO)cc3)c(C#N)c(SCc3csc(-c4ccc(Cl)cc4)n3)nc2n1C` [Example 7], the EC50 on adenosine A2a receptor worked out at 350 nM; at adenosine A2b receptor, 660 nM; on adenosine A1 receptor, 5 nM.

In the case of `COC(=O)c1c(N)c2c(-c3ccc(OC[C@@H](O)CO)cc3)c(C#N)c(SCc3coc(-c4ccc(Cl)cc4)n3)nc2n1C` [Example 11], the EC50 at adenosine A2a receptor is 600 nM; at adenosine A2b receptor, over 3000 nM; on adenosine A1 receptor, 14 nM.

As for `COC(=O)c1c(N)c2c(-c3ccc(OC[C@@H](O)CO)cc3)c(C#N)c(SCc3csc(-c4ccc(Cl)cc4)n3)nc2n1C` [Example 12], the EC50 was 1600 nM on adenosine A2a receptor, over 3000 nM on adenosine A2b receptor and 11 nM at adenosine A1 receptor.

For the molecule `COC(=O)c1c(N)c2c(-c3ccc(OCCO)cc3)c(C#N)c(SCc3cccc(C(N)=O)c3)nc2n1C` [Example 15, Methyl 3-amino-6-[(3-carbamoylbenzyl)thio]-5-cyano-4-[4-(2-hydroxyethoxy)phenyl]-1-methyl-1H-pyrrolo[2,3-b]pyridine-2-carboxylate], the EC50 on adenosine A2a receptor was 440 nM; on adenosine A2b receptor, 1330 nM; at adenosine A1 receptor it was 3.7 nM.

Consider `Cn1c(C(N)=O)c(N)c2c(-c3ccc(OCCO)cc3)c(C#N)c(SCc3cccc(C(N)=O)c3)nc21` [Example 16, 3-Amino-6-[(3-carbamoylbenzyl)thio]-5-cyano-4-[4-(2-hydroxyethoxy)phenyl]-1-methyl-1H-pyrrolo[2,3-b]pyridine-2-carboxamide], for which the EC50 at adenosine A2a receptor was found to be 330 nM; at adenosine A2b receptor, 760 nM; on adenosine A1 receptor, 4.9 nM.

Consider `COC(=O)c1[nH]c2nc(SCc3csc(-c4ccc(Cl)cc4)n3)c(C#N)c(-c3ccc(OCCO)cc3)c2c1N` [Example 17, Methyl 3-amino-6-({[2-(4-chlorophenyl)-1,3-thiazol-4-yl]methyl}thio)-5-cyano-4-[4-(2-hydroxyethoxy)phenyl]-1H-pyrrolo[2,3-b]pyridine-2-carboxylate], for which the concentration for a half-maximal effect (EC50) was 680 nM at adenosine A2a receptor, over 3000 nM on adenosine A2b receptor and 3.7 nM at adenosine A1 receptor.

For the molecule `N#Cc1c(SCc2csc(-c3ccc(Cl)cc3)n2)nc2[nH]nc(N)c2c1-c1ccc(OCCO)cc1` [Example 21, 3-Amino-6-({[2-(4-chlorophenyl)-1,3-thiazol-4-yl]methyl}sulfanyl)-4-[4-(2-hydroxyethoxy)phenyl]-1H-pyrazolo[3,4-b]pyridine-5-carbonitrile], the EC50 at adenosine A2a receptor was over 3000 nM; on adenosine A2b receptor, over 3000 nM; at adenosine A1 receptor it was 10 nM.

For the origin of these results see patent US8609686B2, “Substituted azabicyclic compounds and the use thereof” (Bayer Intellectual Property GmbH, priority 2007, dated 2013).
